Structures can show the parent of a compound that is named as a salt.
Molecular target: T1, Human AHR (Homo sapiens, UniProt P35869)
T1 construct: expressed in transfected cells
T1 sequence (P35869 11-848): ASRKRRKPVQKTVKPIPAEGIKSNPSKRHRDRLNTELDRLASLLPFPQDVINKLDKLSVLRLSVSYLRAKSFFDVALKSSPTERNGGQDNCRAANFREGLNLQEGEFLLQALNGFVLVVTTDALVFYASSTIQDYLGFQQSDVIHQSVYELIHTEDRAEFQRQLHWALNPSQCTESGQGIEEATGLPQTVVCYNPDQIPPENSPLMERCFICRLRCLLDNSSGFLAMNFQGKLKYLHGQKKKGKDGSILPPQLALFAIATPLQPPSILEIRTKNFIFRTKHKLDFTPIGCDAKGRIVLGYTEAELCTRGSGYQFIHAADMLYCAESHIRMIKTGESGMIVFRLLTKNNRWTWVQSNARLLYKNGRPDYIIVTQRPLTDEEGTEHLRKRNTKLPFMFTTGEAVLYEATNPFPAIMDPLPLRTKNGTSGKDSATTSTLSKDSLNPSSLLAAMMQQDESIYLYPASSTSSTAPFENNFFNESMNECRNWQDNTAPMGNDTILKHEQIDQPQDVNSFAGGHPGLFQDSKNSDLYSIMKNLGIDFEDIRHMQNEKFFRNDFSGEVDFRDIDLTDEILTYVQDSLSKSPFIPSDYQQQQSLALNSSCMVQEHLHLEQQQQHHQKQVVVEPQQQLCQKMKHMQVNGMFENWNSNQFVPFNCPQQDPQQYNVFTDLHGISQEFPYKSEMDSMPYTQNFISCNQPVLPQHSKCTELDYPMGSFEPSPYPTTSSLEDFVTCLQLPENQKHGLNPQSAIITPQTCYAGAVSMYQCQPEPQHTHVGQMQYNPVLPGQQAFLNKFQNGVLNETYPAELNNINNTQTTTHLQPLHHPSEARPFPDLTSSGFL
Assay: hAHR Nuclear Translocation Assay
Assay type: cell-based
Settings: Jump-In T-REx HEK293 cells expressing AhR-EGFP chimera; 45 minutes incubation; ratio of EGFP fluorescent intensity in nuclear over cytosol; 20-point curve
Experimental: Stable cell lines were established using Jump-In™ T-REx™ HEK293 Retargeting Kit (Life Technologies). Human AHR cDNA was cloned into the pJTI R4 CMV-TO EGFP vector. The EGFP was cloned to the C-terminal of AHR to form AhR-EGFP chimera. The pJTI R4 CMV-TO AhR-EGFP vector was transfected using FuGENE® HD into Jump-In™ T-REx™ HEK293 cells. Transfected cells were selected using 2.5 mg/ml G418 for 10 to 14 days, then expanded, harvested, and suspended in freeze media (FBS with 8% DMSO) at 2×10^7 cells/ml, and aliquots were stored in liquid nitrogen. […] On the assay date, compound was serially diluted (1:2) into 384-well nunc plates with DMSO using acoustic dispensing (ECHO). The dose response was a 20-point curve. Compound was resuspended in 40 μl of DMEM plus 0.1% BSA. The culture media was damped and 25 μl of DMEM plus 0.1% BSA was added, then 25 μl of compound in DMEM plus 0.1% BSA was added into cell plates. Cells were incubated with compounds at 37° C. and 5% CO2 for 45 minutes. The final DMSO concentration was 0.2%. The media was damped after 45 minutes of incubation. The cells were fixed with 40 μl of cold methanol (−20° C.) for 20 minutes. The methanol was damped and 50 μl of DPBS containing 1 μg/ml Hochst was added into the cell plates. The intensity of EGFP was quantitated by using OPERA PHENIX® or Operetta™ high content image system (Perkin Elmer) with 20× Water Objective and five field per well. The ratio of EGFP fluorescent intensity in nuclear over cytosol was analyzed using a 4-parameter nonlinear logistic equation to determine the potency of AHR agonists.

Row | EC50 | Structure (SMILES)
1 | 40.6 nM | CN(C)CCNc1ccc2c(c1)cc(C(=O)Nc1ccccn1)c(=O)n2C [Example 55, 6-[2-(Dimethylamino)ethylamino]-1-methyl-2-oxo-N-(2-pyridyl)quinoline-3-carboxamide]
2 | 2.21 nM | CNc1ccc2cc(C(=O)Nc3ccc(OC)cc3)c(=O)n(C)c2c1 [Example 46, N-(4-Methoxyphenyl)-1-methyl-7-(methylamino)-2-oxo-quinoline-3-carboxamide]
3 | 9 nM | CN(C)CCNc1ccc2c(c1)cc(C(=O)Nc1ccccc1)c(=O)n2C [Example 49, 6-[2-(Dimethylamino)ethylamino]-1-methyl-2-oxo-N-phenyl-quinoline-3-carboxamide]
4 | 18 nM | COc1ccc(NC(=O)c2cc3ccc(N(C)C)cc3n(C)c2=O)cc1 [Example 47, 7-(Dimethylamino)-N-(4-methoxyphenyl)-1-methyl-2-oxo-quinoline-3-carboxamide]
5 | 21.3 nM | CN(C)CCNc1cccc2c1cc(C(=O)Nc1ccccc1)c(=O)n2C [Example 48, 5-[2-(Dimethylamino)ethylamino]-1-methyl-2-oxo-N-phenyl-quinoline-3-carboxamide]
6 | 14.2 nM | COc1cnc(NC(=O)c2cc3ccccc3n(C)c2=O)nc1 [Example 15, N-(5-Methoxypyrimidin-2-yl)-1-methyl-2-oxo-quinoline-3-carboxamide]
7 | 15.1 nM | Cn1c(=O)c(C(=O)Nc2ccccc2)cc2ccc(NCCO)cc21 [Example 70, 7-(2-Hydroxyethylamino)-1-methyl-2-oxo-N-phenyl-quinoline-3-carboxamide]
8 | 19.2 nM | Cn1c(=O)c(C(=O)Nc2ccccn2)cc2cc(OCCO)ccc21 [Example 59, 6-(2-Hydroxyethoxy)-1-methyl-2-oxo-N-(2-pyridyl)quinoline-3-carboxamide]
9 | 2.14 nM | COc1ccc(NC(=O)c2cc3ccc(C4CC4)cc3n(C)c2=O)cc1 [Example 45, 7-Cyclopropyl-N-(4-methoxyphenyl)-1-methyl-2-oxo-quinoline-3-carboxamide]
10 | 0.468 nM | Cn1c(=O)c(C(=O)Nc2ccc(F)cc2)cc2cccnc21 [Example 18, N-(4-Fluorophenyl)-1-methyl-2-oxo-1,8-naphthyridine-3-carboxamide]
11 | 0.837 nM | COc1ccc(NC(=O)c2cc3ccccc3n(C)c2=O)cc1OC [Example 3, N-(3,4-Dimethoxyphenyl)-1-methyl-2-oxo-quinoline-3-carboxamide]
12 | 0.389 nM | Cn1c(=O)c(C(=O)Nc2ccc(F)cn2)cc2ccccc21 [Example 22, N-(5-Fluoro-2-pyridyl)-1-methyl-2-oxo-quinoline-3-carboxamide]
13 | 16.4 nM | Cn1c(=O)c(C(=O)NC23CC(C2)C3)cc2ccccc21 [Example 32, N-(3-Bicyclo[1.1.1]pentanyl)-1-methyl-2-oxo-quinoline-3-carboxamide]
14 | 0.0971 nM | Cc1ccc(NC(=O)c2cc3ccccc3n(C)c2=O)cc1 [Example 5, 1-Methyl-2-oxo-N-(p-tolyl) quinoline-3-carboxamide]
15 | 7.45 nM | Cn1c(=O)c(C(=O)Nc2ccccc2)cc2cc(OCCO)ccc21 [Example 58, 6-(2-Hydroxyethoxy)-1-methyl-2-oxo-N-phenyl-quinoline-3-carboxamide]
16 | 1.09 nM | COc1cnc(NC(=O)c2cc3ccccc3n(C)c2=O)cn1 [Example 16, N-(5-Methoxypyrazin-2-yl)-1-methyl-2-oxo-quinoline-3-carboxamide]
17 | 0.595 nM | COc1ccc(NC(=O)c2cc3ccc(C)cc3n(C)c2=O)cc1 [Example 44, N-(4-Methoxyphenyl)-1,7-dimethyl-2-oxo-quinoline-3-carboxamide]

Row | EC50 | Structure (SMILES)
18 | 2.41 nM | Cn1c(=O)c(C(=O)Nc2ccccc2O)cc2ccccc21 [Example 2, N-(2-Hydroxyphenyl)-1-methyl-2-oxo-quinoline-3-carboxamide]
19 | 3.52 nM | Cn1c(=O)c(C(=O)Nc2ncccn2)cc2ccccc21 [Example 39, 1-Methyl-2-oxo-N-pyrimidin-2-yl-quinoline-3-carboxamide]
20 | 0.993 nM | Cn1c(=O)c(C(=O)Nc2ncc(F)cn2)cc2ccccc21 [Example 14, N-(5-Fluoropyrimidin-2-yl)-1-methyl-2-oxo-quinoline-3-carboxamide]
21 | 6.66 nM | Cn1c(=O)c(C(=O)Nc2ncc(C(F)(F)F)cn2)cc2c(NCCO)cccc21 [Example 69, 5-(2-Hydroxyethylamino)-1-methyl-2-oxo-N-[5-(trifluoromethyl)pyrimidin-2-yl]quinoline-3-carboxamide]
22 | 10.8 nM | COc1cccc(NC(=O)c2cc3ccccc3n(C)c2=O)n1 [Example 21, N-(6-Methoxy-2-pyridyl)-1-methyl-2-oxo-quinoline-3-carboxamide]
23 | 79.2 nM | COc1ccc(NC(=O)c2cc3ccc(NCCN(C)C)cc3n(C)c2=O)cc1 [Example 56, 7-[2-(Dimethylamino)ethylamino]-N-(4-methoxyphenyl)-1-methyl-2-oxo-quinoline-3-carboxamide]
24 | 0.214 nM | Cn1c(=O)c(C(=O)Nc2ccc(F)cc2)cc2ccccc21 [Example 4, N-(4-Fluorophenyl)-1-methyl-2-oxo-quinoline-3-carboxamide]
25 | 16.1 nM | Cn1c(=O)c(C(=O)Nc2ccccc2)cc2ccc(OCCO)cc21 [Example 61, 7-(2-Hydroxyethoxy)-1-methyl-2-oxo-N-phenyl-quinoline-3-carboxamide]
26 | 81.2 nM | Cn1c(=O)c(C(=O)Nc2ncc(F)cn2)cc2c(NCCO)cccc21 [Example 68, N-(5-Fluoropyrimidin-2-yl)-5-(2-hydroxyethylamino)-1-methyl-2-oxo-quinoline-3-carboxamide]
27 | 1.4 nM | Cn1c(=O)c(C(=O)Nc2ccccc2)cc2c(OCCO)cccc21 [Example 60, 5-(2-Hydroxyethoxy)-1-methyl-2-oxo-N-phenyl-quinoline-3-carboxamide]
28 | 16.4 nM | CN(C)CCNc1cccc2c1cc(C(=O)Nc1ccc(F)cn1)c(=O)n2C [Example 51, 5-[2-(Dimethylamino)ethylamino]-N-(5-fluoro-2-pyridyl)-1-methyl-2-oxo-quinoline-3-carboxamide]
29 | 62.8 nM | CN(C)CCNc1cccc2c1cc(C(=O)Nc1ncc(F)cn1)c(=O)n2C [Example 57, 5-[2-(Dimethylamino)ethylamino]-N-(5-fluoropyrimidin-2-yl)-1-methyl-2-oxo-quinoline-3-carboxamide]
30 | 1.33 nM | O=C(Nc1ccc(C(F)(F)F)cc1)c1cc2cccc3c2n(c1=O)CC3 [Example 33, 11-Oxo-N-[4-(trifluoromethyl)phenyl]-1-azatricyclo[6.3.1.04,12]dodeca-4(12),5,7,9-tetraene-10-carboxamide]
31 | 6 nM | Cn1c(=O)c(C(=O)Nc2ccccc2)cc2cc(NCCO)ccc21 [Example 62, 6-(2-Hydroxyethylamino)-1-methyl-2-oxo-N-phenyl-quinoline-3-carboxamide]
32 | 2.37 nM | Cc1cnc(NC(=O)c2cc3ccccc3n(C)c2=O)nc1 [Example 17, 1-Methyl-N-(5-methylpyrimidin-2-yl)-2-oxo-quinoline-3-carboxamide]
33 | 10.6 nM | Cn1cc(NC(=O)c2cc3ccccc3n(C)c2=O)cn1 [Example 27, hydrochloride]
